How the values were obtained:
Assay type in all cases: cell-based
human neutrophils [1] = experiment: PMN lysis (LDH release); settings: 37°C, 1 h; for PMN lysis at high concentration: synthetic peptides at 10 µg/ml or higher
Experimental: Figure 5 PSMα3N22Y has diminished cytolytic activities. (A) PMN lysis of synthetic PSMα3N22Y versus PSMα3. Data are from 2 donors, measured in triplicate each after incubation at 37°C for 1 h. […] (B) Hemolysis of synthetic PSMα3N22Y versus PSMα3. Data are from 2 donors, measured in triplicate, after incubation at 37°C for 1 h. (C, D) PMN lysis and hemolysis, respectively, of culture filtrates from PSMα3N22Y- versus PSMα3-producing strains when expressed on plasmids. pTXΔ16 is the empty control vector. The background strain in all constructs is a PSM-free USA300 strain (LACΔpsmαΔpsmβΔhld). Culture filtrates were diluted 1∶20 for the PMN lysis and 1∶2 for the hemolysis measurements. PMN lysis results are from two and hemolysis data from one donor, with three replicates measured each. (E) PMN lysis of culture filtrates from MRSA252 (252) versus 252*, in which the psmα3 gene (expressing PSMα3N22Y) on the genome was changed to express PSMα3 as present in all non-CC30 strains. […] Culture filtrates were diluted 1∶10. *, p<0.05 (paired t-test). (F) Hemolysis of culture filtrates from the same strains as in (E) at different dilutions. (A–F), *, p<0.05; **, p<0.01; ***, p<0.001; ****, p<0.0001. […]
(§1) Human neutrophils were isolated from venous blood of healthy donors as described, [39]. Neutrophil chemotaxis and Ca^2+ flux were determined as previously described, [24]. […] Chemotaxis of neutrophils was determined using a transwell system (Costar) with analysis of neutrophil migration using fluorescence labeling. Calcium fluxes were monitored as a surrogate marker for chemotaxis since it can be measured more robustly and accurately than chemotaxis. For measurement of Ca^2+ fluxes, 5×10^6 neutrophils/ml were labeled with a fluorescent dye and analyzed with a FACScalibur (Becton Dickinson) as described. […] Measurements of 2,000 events were performed and Ca^2+ flux was expressed as relative fluorescence corrected for buffer controls. […] At the desired times, PMN lysis was determined by release of lactate dehydrogenase (LDH) (Cytotoxicity Detection Kit, Roche Applied Sciences).

FPR2 = biological target: T1, FPR2 (Homo sapiens, UniProt P25090); experiment: Ca2+ flux in HL60 cells stably transfected with FPR2; settings: for Activation of FPR2 relative to FPR1 and FPR3: both peptides
T1 construct: expressed in transfected cells; host or cells: HL60 cells, stably transfected
T1 sequence (P25090 1-351): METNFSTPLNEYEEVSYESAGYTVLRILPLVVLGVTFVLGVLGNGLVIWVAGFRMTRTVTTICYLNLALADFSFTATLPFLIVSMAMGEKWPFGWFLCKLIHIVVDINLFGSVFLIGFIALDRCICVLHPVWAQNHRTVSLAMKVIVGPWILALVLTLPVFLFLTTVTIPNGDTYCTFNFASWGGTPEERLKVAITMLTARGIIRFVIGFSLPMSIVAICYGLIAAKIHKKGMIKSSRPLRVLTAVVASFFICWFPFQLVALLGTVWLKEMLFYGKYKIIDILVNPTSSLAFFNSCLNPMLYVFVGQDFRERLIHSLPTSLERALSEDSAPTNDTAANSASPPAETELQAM
Experimental: (§2) Next, we analyzed Ca^2+ flux as a general measure to test for neutrophil activation, as used in previous studies. HL60 cells stably transfected with different FPR receptor genes were used to determine which FPR receptors are differentially activated by PSMα3 versus PSMα3N22Y (Fig. 4A). […] At a peptide concentration of 100 nM, we observed a difference of ∼factor 2 in chemotactic activity comparing the two peptides when FPR1 recognition was inhibited by CHIPS, likely attributable to FPR2-mediated recognition. Owing to the overall ∼10 times lower capacity to stimulate FPR receptors other than FPR2, we observed no chemotaxis at that peptide concentration with addition of the FPR2 blocking agent FLIPr.
(A) Differential activation of FPRs by PSMα3 versus PSMα3N22Y was measured using synthetic peptides and Ca^2+ flux observed in HL60 cells stably transfected with the corresponding FPR genes as readout, using three biological and two technical replicates. The calculated Kd values are shown on the right. […] (B) Ca^2+ flux in human neutrophils upon addition of PSMα3 or PSMα3N22Y and inhibition by FLIPr (FPR2 inhibitor) or CHIPS (FPR1 inhibitor). Neutrophils were from three donors and the measurements were performed in quadruplicate. *, p<0.05; **, p<0.01; ***, p<0.001; ****, p<0.0001 (comparing values obtained with PSMα3 versus corresponding values obtained with PSMα3N22Y). TEXT PRINTED IN THE PICTURE: (A) PSMα3: Kd (nM): FPR1: 615.6 ± 101.2; Kd (nM): FPR2: 11.90 ± 1.90; Kd (nM): FPR3: 1377 ± 285 | (A) PSMα3 N22Y: Kd (nM): FPR1: 3039 ± 682; Kd (nM): FPR2: 10.81 ± 2.38; Kd (nM): FPR3: 953.0 ± 253.9
Synthetic PSM peptides were obtained from commercial vendors at a purity of >95%. They all carry the N-terminal N-formyl methionine as common for PSMs, which are secreted into the medium without a signal peptide. […]
as §1

human neutrophils [2] = experiment: Human neutrophil chemotaxis / Ca2+ flux with FPR2 inhibited by FLIPr; settings: FLIPr 0.5 µg/ml, 20 min pre-incubation at room temperature, three donors, quadruplicate; for Chemotaxis with addition of FPR2 blocking agent FLIPr, 100 nM peptide: peptide 100 nM
Experimental: as §2
(A) Differential activation of FPRs by PSMα3 versus PSMα3N22Y was measured using synthetic peptides and Ca^2+ flux observed in HL60 cells stably transfected with the corresponding FPR genes as readout, using three biological and two technical replicates. The calculated Kd values are shown on the right. […] (B) Ca^2+ flux in human neutrophils upon addition of PSMα3 or PSMα3N22Y and inhibition by FLIPr (FPR2 inhibitor) or CHIPS (FPR1 inhibitor). […]
as §1

[3] = Ca2+ flux, transfected HL60 cells

| SMILES | PMN lysis at high concentration (human neutrophils [1]) | FPR2-activating potential, PSMα3 versus PSMα3N22Y (FPR2; [3]) | Activation of FPR2 relative to FPR1 and FPR3 (FPR2; [3]) | Kd (FPR2; one site-binding model from Ca2+ flux, synthetic peptides, FPR2-transfected HL60 cells, three biological and two technical replicates, error = standard deviation) | Chemotaxis with addition of FPR2 blocking agent FLIPr, 100 nM peptide (human neutrophils [2]) | Difference in chemotactic potential between the two peptides with FPR2 blocked, 1 µM peptide (human neutrophils [2]; peptide 1 µM) | Cytolytic capacity toward human neutrophils (human neutrophils [1]; synthetic peptides, LDH release, 2 donors, triplicate, compared to PSMα3N22Y) |
| --- | --- | --- | --- | --- | --- | --- | --- |
| CSCC[C@H](NC=O)C(=O)N[C@@H](CCC(=O)O)C(=O)N[C@@H](Cc1ccccc1)C(=O)N[C@H](C(=O)N[C@@H](C)C(=O)N[C@@H](CCCCN)C(=O)N[C@@H](CC(C)C)C(=O)N[C@@H](Cc1ccccc1)C(=O)N[C@@H](CCCCN)C(=O)N[C@@H](Cc1ccccc1)C(=O)N[C@@H](Cc1ccccc1)C(=O)N[C@@H](CCCCN)C(=O)N[C@@H](CC(=O)O)C(=O)N[C@@H](CC(C)C)C(=O)N[C@@H](CC(C)C)C(=O)NCC(=O)N[C@@H](CCCCN)C(=O)N[C@@H](Cc1ccccc1)C(=O)N[C@@H](CC(C)C)C(=O)NCC(=O)N[C@@H](CC(N)=O)C(=O)N[C@@H](Cc1ccc(O)cc1)C(=O)O)C(C)C [PSMα3N22Y] | completely lysed the neutrophils | no difference in the FPR2-activating potential | activated FPR2 much stronger than FPR1 and FPR3 | 0.0108 ± 0.00238 µM | no chemotaxis | very strong difference in chemotactic potential |  |
| CSCC[C@H](NC=O)C(=O)N[C@@H](CCC(=O)O)C(=O)N[C@@H](Cc1ccccc1)C(=O)N[C@H](C(=O)N[C@@H](C)C(=O)N[C@@H](CCCCN)C(=O)N[C@@H](CC(C)C)C(=O)N[C@@H](Cc1ccccc1)C(=O)N[C@@H](CCCCN)C(=O)N[C@@H](Cc1ccccc1)C(=O)N[C@@H](Cc1ccccc1)C(=O)N[C@@H](CCCCN)C(=O)N[C@@H](CC(=O)O)C(=O)N[C@@H](CC(C)C)C(=O)N[C@@H](CC(C)C)C(=O)NCC(=O)N[C@@H](CCCCN)C(=O)N[C@@H](Cc1ccccc1)C(=O)N[C@@H](CC(C)C)C(=O)NCC(=O)N[C@@H](CC(N)=O)C(=O)N[C@@H](CC(N)=O)C(=O)O)C(C)C [PSMα3] | completely lysed the neutrophils |  | activated FPR2 much stronger than FPR1 and FPR3 |  | no chemotaxis |  | significantly higher cytolytic capacities |

— paper PMC4140855, “Production of an Attenuated Phenol-Soluble Modulin Variant Unique to the MRSA Clonal Complex 30 Increases Severity of Bloodstream Infection” (PLoS Pathogens, 2014)
